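Assay format: 96-well plates, 48-hour exposure. TGI: concentration producing complete growth inhibition.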
Experiments:
Experiment in all cases: NCI tumour cell line growth inhibition, 48 h
SN12C renal = test system: SN12C renal
RXF 393 renal = test system: RXF 393 renal
NCI-H522 lung = test system: NCI-H522 lung
SNB-75 CNS = test system: SNB-75 CNS
XF 498 CNS = test system: XF 498 CNS
SNB-19 CNS = test system: SNB-19 CNS
SK-MEL-5 melanoma = test system: SK-MEL-5 melanoma
DMS 273 small cell lung = test system: DMS 273 small cell lung
SN12K1 renal = test system: SN12K1 renal
SW-620 colon = test system: SW-620 colon
SF-295 CNS = test system: SF-295 CNS
UO-31 renal = test system: UO-31 renal
SF-539 CNS = test system: SF-539 CNS
MCF7 breast = test system: MCF7 breast
HCT-15 colon = test system: HCT-15 colon
CCRF-CEM leukemia = test system: CCRF-CEM leukemia
SK-OV-3 ovarian = test system: SK-OV-3 ovarian
UACC-62 melanoma = test system: UACC-62 melanoma
EKVX NSCLC = test system: EKVX NSCLC
HOP-62 NSCLC = test system: HOP-62 NSCLC
A498 renal = test system: A498 renal
HT29 colon = test system: HT29 colon
OVCAR-5 ovarian = test system: OVCAR-5 ovarian
SNB-78 CNS = test system: SNB-78 CNS
DLD-1 colon = test system: DLD-1 colon
COLO 205 colon = test system: COLO 205 colon
NCI-H23 lung = test system: NCI-H23 lung
U251 CNS = test system: U251 CNS
P388/ADR leukemia = test system: P388/ADR leukemia
CAKI-1 renal = test system: CAKI-1 renal
LOX IMVI melanoma = test system: LOX IMVI melanoma
SK-MEL-28 melanoma = test system: SK-MEL-28 melanoma
K-562 leukemia = test system: K-562 leukemia
RPMI-8226 leukemia = test system: RPMI-8226 leukemia
NCI/ADR-RES ovarian = test system: NCI/ADR-RES ovarian
MALME-3M melanoma = test system: MALME-3M melanoma
MOLT-4 leukemia = test system: MOLT-4 leukemia
UACC-257 melanoma = test system: UACC-257 melanoma
P388 leukemia = test system: P388 leukemia
M19-MEL melanoma = test system: M19-MEL melanoma
HOP-92 NSCLC = test system: HOP-92 NSCLC
HOP-18 NSCLC = test system: HOP-18 NSCLC
SF-268 CNS = test system: SF-268 CNS
HCC-2998 colon = test system: HCC-2998 colon
NCI-H226 lung = test system: NCI-H226 lung
IGROV1 ovarian = test system: IGROV1 ovarian
OVCAR-3 ovarian = test system: OVCAR-3 ovarian
OVCAR-4 ovarian = test system: OVCAR-4 ovarian
KM12 colon = test system: KM12 colon
KM20L2 colon = test system: KM20L2 colon
HCT-116 colon = test system: HCT-116 colon
NCI-H460 lung = test system: NCI-H460 lung
A549 NSCLC = test system: A549 NSCLC
HL-60(TB) leukemia = test system: HL-60(TB) leukemia
SK-MEL-2 melanoma = test system: SK-MEL-2 melanoma
OVCAR-8 ovarian = test system: OVCAR-8 ovarian

S=C(NCCCCCCNC(=S)Nc1c2ccccc2nc2ccccc12)Nc1c2ccccc2nc2ccccc12
TGI (SN12C renal): > 100 µM
TGI (RXF 393 renal): > 100 µM
TGI (NCI-H522 lung): > 100 µM
TGI (SNB-75 CNS): > 100 µM
TGI (XF 498 CNS): > 100 µM
TGI (SNB-19 CNS): > 100 µM
TGI (SK-MEL-5 melanoma): > 100 µM
TGI (DMS 273 small cell lung): > 100 µM
TGI (SN12K1 renal): > 25.1 µM
TGI (SW-620 colon): > 100 µM
TGI (SF-295 CNS): > 100 µM
TGI (UO-31 renal): > 100 µM
TGI (SF-539 CNS): 99.9 µM
TGI (MCF7 breast): > 100 µM
TGI (HCT-15 colon): > 100 µM
TGI (CCRF-CEM leukemia): > 100 µM
TGI (SK-OV-3 ovarian): > 100 µM
TGI (UACC-62 melanoma): > 100 µM
TGI (EKVX NSCLC): > 100 µM
TGI (HOP-62 NSCLC): > 100 µM
TGI (A498 renal): > 100 µM
TGI (HT29 colon): > 100 µM
TGI (OVCAR-5 ovarian): > 100 µM
TGI (SNB-78 CNS): > 100 µM
TGI (DLD-1 colon): > 100 µM
TGI (COLO 205 colon): > 100 µM
TGI (NCI-H23 lung): > 100 µM
TGI (U251 CNS): > 100 µM
TGI (P388/ADR leukemia): > 100 µM
TGI (CAKI-1 renal): > 100 µM
TGI (LOX IMVI melanoma): > 100 µM
TGI (SK-MEL-28 melanoma): > 100 µM
TGI (K-562 leukemia): > 100 µM
TGI (RPMI-8226 leukemia): > 100 µM
TGI (NCI/ADR-RES ovarian): > 100 µM
TGI (MALME-3M melanoma): > 100 µM
TGI (MOLT-4 leukemia): > 94.3 µM
TGI (UACC-257 melanoma): > 100 µM
TGI (P388 leukemia): > 100 µM
TGI (M19-MEL melanoma): > 100 µM
TGI (HOP-92 NSCLC): > 100 µM
TGI (HOP-18 NSCLC): > 100 µM
TGI (SF-268 CNS): > 100 µM
TGI (HCC-2998 colon): > 100 µM
TGI (NCI-H226 lung): > 30.1 µM
TGI (IGROV1 ovarian): > 100 µM
TGI (OVCAR-3 ovarian): > 100 µM
TGI (OVCAR-4 ovarian): > 100 µM
TGI (KM12 colon): > 34.7 µM
TGI (KM20L2 colon): > 100 µM
TGI (HCT-116 colon): > 100 µM
TGI (NCI-H460 lung): > 100 µM
TGI (A549 NSCLC): > 100 µM
TGI (HL-60(TB) leukemia): > 100 µM
TGI (SK-MEL-2 melanoma): > 100 µM
TGI (OVCAR-8 ovarian): > 100 µM

— PubChem BioAssay (NCI)
